From a compilation of properties of binary mixtures (doi:10.1016/j.molliq.2014.08.031)

Test: xn = mol fraction of the nth substance listed
Conditions: 101 kPa

CCCC[n+]1ccn(C)c1.CS(=O)(=O)[O-] + O
Conditions	electrical conductivity [S/m]	viscosity [mPa·s]
343.15 K, x2 = 0.7015	–	6.27
343.15 K, x2 = 0.704	2.68	–
343.15 K, x2 = 0.7495	–	4.95
343.15 K, x2 = 0.785	4.03	–
343.15 K, x2 = 0.796	4.19	–
343.15 K, x2 = 0.8016	–	3.73
343.15 K, x2 = 0.861	7.01	–
343.15 K, x2 = 0.9004	–	1.902
343.15 K, x2 = 0.9254	–	1.45
343.15 K, x2 = 0.929	9.33	–
343.15 K, x2 = 0.9503	–	1.05
343.15 K, x2 = 0.951	9.42	–
343.15 K, x2 = 0.968	8.73	–
343.15 K, x2 = 0.975	–	0.672
344.15 K, x1 = 0.004	2.52	–
344.15 K, x1 = 0.008	4.46	–
344.15 K, x1 = 0.019	7.24	–
344.15 K, x2 = 0.785	4.1	–
344.15 K, x2 = 0.796	4.32	–
344.15 K, x2 = 0.861	7.13	–
344.15 K, x2 = 0.892	8.05	–
344.15 K, x2 = 0.951	9.81	–
345.15 K, x1 = 0.008	4.43	–
345.15 K, x1 = 0.019	7.32	–
345.15 K, x2 = 0.704	2.81	–
345.15 K, x2 = 0.861	7.27	–
345.15 K, x2 = 0.892	8.29	–
345.15 K, x2 = 0.929	9.54	–
346.15 K, x1 = 0.004	2.55	–
346.15 K, x1 = 0.019	7.4	–
346.15 K, x2 = 0.785	4.26	–
346.15 K, x2 = 0.861	7.5	–
346.15 K, x2 = 0.892	8.44	–
346.15 K, x2 = 0.929	9.69	–
346.15 K, x2 = 0.968	9.3	–
347.15 K, x1 = 0.004	2.58	–
347.15 K, x1 = 0.008	4.7	–
347.15 K, x1 = 0.019	7.35	–
347.15 K, x2 = 0.704	2.95	–
347.15 K, x2 = 0.785	4.32	–
347.15 K, x2 = 0.929	9.84	–
347.15 K, x2 = 0.951	10.2	–
347.15 K, x2 = 0.968	9.4	–
348.15 K, x1 = 0.008	4.66	–
348.15 K, x1 = 0.019	7.57	–
348.15 K, x2 = 0.704	3.03	–
348.15 K, x2 = 0.785	4.41	–
348.15 K, x2 = 0.796	4.64	–
348.15 K, x2 = 0.861	7.68	–
348.15 K, x2 = 0.929	9.94	–
348.15 K, x2 = 0.951	10.4	–
348.15 K, x2 = 0.968	9.35	–
349.15 K, x1 = 0.004	2.62	–
349.15 K, x1 = 0.008	4.72	–
349.15 K, x1 = 0.019	7.54	–
349.15 K, x2 = 0.704	3.08	–
349.15 K, x2 = 0.785	4.52	–
349.15 K, x2 = 0.892	8.91	–
349.15 K, x2 = 0.929	10.1	–
349.15 K, x2 = 0.968	9.59	–
350.15 K, x1 = 0.004	2.67	–
350.15 K, x1 = 0.008	4.85	–
350.15 K, x2 = 0.704	3.16	–
350.15 K, x2 = 0.785	4.57	–
350.15 K, x2 = 0.796	4.8	–
350.15 K, x2 = 0.861	7.93	–
350.15 K, x2 = 0.892	9.06	–
350.15 K, x2 = 0.929	10.3	–
350.15 K, x2 = 0.951	10.7	–
350.15 K, x2 = 0.968	9.73	–
351.15 K, x1 = 0.004	2.68	–
351.15 K, x1 = 0.008	4.84	–
351.15 K, x1 = 0.019	7.88	–
351.15 K, x2 = 0.704	3.27	–
351.15 K, x2 = 0.785	4.68	–
351.15 K, x2 = 0.796	4.91	–
351.15 K, x2 = 0.861	8.29	–
351.15 K, x2 = 0.892	9.2	–
351.15 K, x2 = 0.929	10.5	–
351.15 K, x2 = 0.951	10.8	–
351.15 K, x2 = 0.968	9.91	–
352.15 K, x1 = 0.004	2.71	–
352.15 K, x1 = 0.008	4.89	–
352.15 K, x2 = 0.704	3.37	–
352.15 K, x2 = 0.785	4.8	–
352.15 K, x2 = 0.796	4.99	–
352.15 K, x2 = 0.861	8.21	–
352.15 K, x2 = 0.892	9.33	–
352.15 K, x2 = 0.929	10.6	–
352.15 K, x2 = 0.968	9.86	–
353.15 K, x1 = 0.008	4.92	–
353.15 K, x1 = 0.019	8.06	–
353.15 K, x2 = 0.892	9.44	–
353.15 K, x2 = 0.929	10.7	–
353.15 K, x2 = 0.968	10.1	–
354.15 K, x1 = 0.004	2.79	–
354.15 K, x1 = 0.008	4.98	–
354.15 K, x1 = 0.019	8.03	–
354.15 K, x2 = 0.704	3.55	–
354.15 K, x2 = 0.785	4.98	–
354.15 K, x2 = 0.796	5.01	–
354.15 K, x2 = 0.892	9.6	–
354.15 K, x2 = 0.929	10.8	–
354.15 K, x2 = 0.951	11.1	–
354.15 K, x2 = 0.968	10.2	–
355.15 K, x1 = 0.008	5.04	–
355.15 K, x1 = 0.019	8.25	–
355.15 K, x2 = 0.785	5.05	–
355.15 K, x2 = 0.796	5.26	–
355.15 K, x2 = 0.861	8.55	–
355.15 K, x2 = 0.892	9.73	–
355.15 K, x2 = 0.929	11	–
355.15 K, x2 = 0.951	11.1	–
356.15 K, x1 = 0.008	5.09	–
356.15 K, x1 = 0.019	8.34	–
356.15 K, x2 = 0.704	3.73	–
356.15 K, x2 = 0.785	5.15	–
356.15 K, x2 = 0.796	5.34	–
356.15 K, x2 = 0.861	8.43	–
356.15 K, x2 = 0.892	9.89	–
356.15 K, x2 = 0.929	11.1	–
356.15 K, x2 = 0.951	11.2	–
356.15 K, x2 = 0.968	10.4	–
357.15 K, x1 = 0.008	5.13	–
357.15 K, x1 = 0.019	8.43	–
357.15 K, x2 = 0.704	3.83	–
357.15 K, x2 = 0.785	5.23	–
357.15 K, x2 = 0.796	5.41	–
357.15 K, x2 = 0.861	8.6	–
357.15 K, x2 = 0.892	10	–
357.15 K, x2 = 0.968	10.6	–
358.15 K, x1 = 0.004	2.9	–
358.15 K, x1 = 0.008	5.18	–
358.15 K, x1 = 0.019	8.47	–
358.15 K, x2 = 0.704	3.88	–
358.15 K, x2 = 0.785	5.22	–
358.15 K, x2 = 0.796	5.47	–
358.15 K, x2 = 0.861	8.73	–
358.15 K, x2 = 0.929	11.3	–
358.15 K, x2 = 0.951	11.5	–
358.15 K, x2 = 0.968	10.6	–
